{"source": "patent US10952431B2", "about": "“Releasable encapsulation compositions” (Battelle Memorial Institute, priority 2016, dated 2021)", "assay": "Particle size distribution before and after encapsulation", "assay_type": "physicochemical", "details": "FIG. 6A, non-encapsulated", "text": "FIGS. 6A-6B show charts of the particle size distribution of TAED. […] Upon encapsulation, approximately 50% of the particles are distributed in the particle size range of 1 and 2 microns. This information also confirms the TAED is coated with the nonionic amphiphilic graft copolymer (PLMA-g-PEG)."}
{"smiles": "CC(=O)N(CCN(C(C)=O)C(C)=O)C(C)=O", "note": "[TAED, tetraacetylethylene-diamine]", "values": [{"measurement": "particle size (majority of particles)", "value": "20-30 microns"}]}
